Data from article PMC10178848, “Modulating fast skeletal muscle contraction protects skeletal muscle in animal models of Duchenne muscular dystrophy” (The Journal of Clinical Investigation, 2023).
Where two headings read alike, the source gives them in different places.

Test system: GRMD plasma proteins
Format: in vivo, dog
[1] = EDG-5506 treatment to GRMD baseline, Increased in GRMD

O=c1ccc(-c2cnc(OCC(F)(F)F)nc2)nn1Cc1cncc(F)c1 [EDG-5506]
Change from GRMD Baseline (fraction): Tyrosine-protein kinase Yes (YES1) [1]: -0.1382 fraction | Change from GRMD Baseline (fraction): Tyrosine-protein kinase ZAP-70 (ZAP70) [1]: -0.1508 fraction | Change from GRMD Baseline (fraction): Tyrosine-protein phosphatase non-receptor type 1 (PTPN1) [1]: -0.1492 fraction | Change from GRMD Baseline (fraction): Tyrosine-protein phosphatase non-receptor type 11 (PTPN11) [1]: -0.1298 fraction | Change from GRMD Baseline (fraction): UMP-CMP kinase (CMPK1) [1]: -0.0444 fraction | Change from GRMD Baseline (fraction): Ubiquitin carboxyl-terminal hydrolase 25 (USP25) [1]: -0.1723 fraction | Change from GRMD Baseline (fraction): Ubiquitin carboxyl-terminal hydrolase isozyme L1 (UCHL1) [1]: -0.1135 fraction | Change from GRMD Baseline (fraction): Ubiquitin-fold modifier 1 (UFM1) [1]: -0.238 fraction | Change from GRMD Baseline (fraction): Vascular cell adhesion protein 1 (VCAM1) [1]: -0.0642 fraction | Change from GRMD Baseline (fraction): Vitamin K-dependent protein C (PROC) [1]: -0.2124 fraction | Change from GRMD Baseline (fraction): Vitronectin (VTN) [1]: -0.1269 fraction | Change from GRMD Baseline (fraction): cAMP-dependent protein kinase catalytic subunit alpha (PRKACA) [1]: -0.4297 fraction | Change from GRMD Baseline (fraction): dCTP pyrophosphatase 1 (DCTPP1) [1]: -0.2045 fraction | Chitotriosidase-1 (CHIT1): Change from GRMD Baseline (fraction) [1]: -0.0569 fraction | Chorionic somatomammotropin hormone (CSH1 CSH2): Change from GRMD Baseline (fraction) [1]: -0.0697 fraction | Chromobox protein homolog 5 (CBX5): Change from GRMD Baseline (fraction) [1]: -0.0792 fraction | Coagulation Factor X (F10): Change from GRMD Baseline (fraction) [1]: 0.1015 fraction | Coagulation factor IX (F9): Change from GRMD Baseline (fraction) [1]: 0.0746 fraction | Complement component 1 Q subcomponent-binding protein, mitochondrial (C1QBP): Change from GRMD Baseline (fraction) [1]: -0.0848 fraction | Connective tissue growth factor (CTGF): Change from GRMD Baseline (fraction) [1]: -0.0649 fraction | Cyclin-dependent kinase 1:G2/mitotic-specific cyclin-B1 complex (CDC2 CCNB1): Change from GRMD Baseline (fraction) [1]: -0.037 fraction | Cyclin-dependent kinase 5:Cyclin-dependent kinase 5 activator 1 complex (CDK5 CDK5R1): Change from GRMD Baseline (fraction) [1]: -0.0717 fraction | Cytokine receptor-like factor 1:Cardiotrophin-like cytokine factor 1 Complex (CRLF1 CLCF1): Change from GRMD Baseline (fraction) [1]: 0.1068 fraction | Dual 3',5'-cyclic-AMP and -GMP phosphodiesterase 11A (PDE11A): Change from GRMD Baseline (fraction) [1]: 0.0578 fraction | Ectodysplasin-A, secreted form (EDA): Change from GRMD Baseline (fraction) [1]: -0.0132 fraction | Endothelial cell-selective adhesion molecule (ESAM): Change from GRMD Baseline (fraction) [1]: 0.0149 fraction | Endothelial monocyte-activating polypeptide 2 (AIMP1): Change from GRMD Baseline (fraction) [1]: -0.1718 fraction | Extracellular superoxide dismutase [Cu-Zn] (SOD3): Change from GRMD Baseline (fraction) [1]: -0.0256 fraction | Ficolin-2 (FCN2): Change from GRMD Baseline (fraction) [1]: -0.1165 fraction | Fms-related tyrosine kinase 3 ligand (FLT3LG): Change from GRMD Baseline (fraction) [1]: -0.0844 fraction | Galactoside 3(4)-L-fucosyltransferase (FUT3): Change from GRMD Baseline (fraction) [1]: 0.0031 fraction | Galectin-10 (CLC): Change from GRMD Baseline (fraction) [1]: 0.0351 fraction | Glial fibrillary acidic protein (GFAP): Change from GRMD Baseline (fraction) [1]: -0.0103 fraction | Glycylpeptide N-tetradecanoyltransferase 1 (NMT1): Change from GRMD Baseline (fraction) [1]: -0.1333 fraction | Group 10 secretory phospholipase A2 (PLA2G10): Change from GRMD Baseline (fraction) [1]: 0.0049 fraction | Growth hormone receptor (GHR): Change from GRMD Baseline (fraction) [1]: -0.0293 fraction | Growth-regulated alpha protein (CXCL1): Change from GRMD Baseline (fraction) [1]: -0.0678 fraction | Growth/differentiation factor 15 (GDF15): Change from GRMD Baseline (fraction) [1]: -0.0948 fraction | Hepatocyte growth factor (HGF): Change from GRMD Baseline (fraction) [1]: -0.0495 fraction | Hepcidin (HAMP): Change from GRMD Baseline (fraction) [1]: -0.0269 fraction | Immunoglobulin M (IGHM IGJ IGK@ IGL@): Change from GRMD Baseline (fraction) [1]: -0.1429 fraction | Importin subunit alpha-1 (KPNA2): Change from GRMD Baseline (fraction) [1]: -0.0896 fraction | Induced myeloid leukemia cell differentiation protein Mcl-1 (MCL1): Change from GRMD Baseline (fraction) [1]: -0.0522 fraction | Inorganic pyrophosphatase (PPA1): Change from GRMD Baseline (fraction) [1]: -0.2863 fraction | Insulin-like growth factor-binding protein 7 (IGFBP7): Change from GRMD Baseline (fraction) [1]: -0.0264 fraction | Integrin alpha-IIb: beta-3 complex (ITGA2B ITGB3): Change from GRMD Baseline (fraction) [1]: -0.0613 fraction | Interleukin-4 (IL4): Change from GRMD Baseline (fraction) [1]: -0.0475 fraction | Interleukin-6 receptor subunit beta (IL6ST): Change from GRMD Baseline (fraction) [1]: 0.0395 fraction | Interleukin-8 (CXCL8): Change from GRMD Baseline (fraction) [1]: -0.0542 fraction | Interleukin-10 receptor subunit beta (IL10RB): Change from GRMD Baseline (fraction) [1]: -0.0725 fraction | Interleukin-17 receptor C (IL17RC): Change from GRMD Baseline (fraction) [1]: -0.0346 fraction | Interleukin-18 receptor accessory protein (IL18RAP): Change from GRMD Baseline (fraction) [1]: -0.0372 fraction | Interleukin-27 (IL27 EBI3): Change from GRMD Baseline (fraction) [1]: -0.0259 fraction | Interleukin-36 beta (IL36B): Change from GRMD Baseline (fraction) [1]: -0.0479 fraction | Killer cell immunoglobulin-like receptor 3DS1 (KIR3DS1): Change from GRMD Baseline (fraction) [1]: 0.0065 fraction | Killer cell lectin-like receptor subfamily F member 1 (KLRF1): Change from GRMD Baseline (fraction) [1]: -0.0162 fraction | Lamin-B1 (LMNB1): Change from GRMD Baseline (fraction) [1]: 0.0054 fraction | Laminin (LAMA1 LAMB1 LAMC1): Change from GRMD Baseline (fraction) [1]: -0.1316 fraction | Low-density lipoprotein receptor-related protein 1B (LRP1B): Change from GRMD Baseline (fraction) [1]: -0.0892 fraction | Macrophage-stimulating protein receptor (MST1R): Change from GRMD Baseline (fraction) [1]: -0.0588 fraction | Matrilin-3 (MATN3): Change from GRMD Baseline (fraction) [1]: -0.1231 fraction | Matrilysin (MMP7): Change from GRMD Baseline (fraction) [1]: -0.0308 fraction | N-terminal pro-BNP (NPPB): Change from GRMD Baseline (fraction) [1]: -0.0602 fraction | NKG2D ligand 3 (ULBP3): Change from GRMD Baseline (fraction) [1]: -0.0822 fraction | Neural cell adhesion molecule L1-like protein (CHL1): Change from GRMD Baseline (fraction) [1]: -0.0329 fraction | Neurexophilin-1 (NXPH1): Change from GRMD Baseline (fraction) [1]: -0.0271 fraction | OX-2 membrane glycoprotein (CD200): Change from GRMD Baseline (fraction) [1]: -0.0611 fraction | Persephin (PSPN): Change from GRMD Baseline (fraction) [1]: -0.013 fraction | Phosphatidylinositol 4,5-bisphosphate 3-kinase catalytic subunit gamma isoform (PIK3CG): Change from GRMD Baseline (fraction) [1]: -0.1006 fraction | Pituitary adenylate cyclase-activating polypeptide 27 (ADCYAP1): Change from GRMD Baseline (fraction) [1]: 0.1436 fraction | Platelet factor 4 (PF4): Change from GRMD Baseline (fraction) [1]: -0.1659 fraction | Platelet glycoprotein VI (GP6): Change from GRMD Baseline (fraction) [1]: 0.0008 fraction | Prolactin (PRL): Change from GRMD Baseline (fraction) [1]: -0.0751 fraction | Prolactin receptor (PRLR): Change from GRMD Baseline (fraction) [1]: -0.064 fraction | Proteasome subunit alpha type-6 (PSMA6): Change from GRMD Baseline (fraction) [1]: -0.0773 fraction | Protein E7_HPV18 (Human-virus): Change from GRMD Baseline (fraction) [1]: -0.1102 fraction | Proto-oncogene tyrosine-protein kinase receptor Ret (RET): Change from GRMD Baseline (fraction) [1]: -0.0388 fraction | RNA-binding protein 39 (RBM39): Change from GRMD Baseline (fraction) [1]: -0.0705 fraction | Ras GTPase-activating protein 1 (RASA1): Change from GRMD Baseline (fraction) [1]: -0.1536 fraction | Ribosome maturation protein SBDS (SBDS): Change from GRMD Baseline (fraction) [1]: -0.2649 fraction | SPARC-related modular calcium-binding protein 1 (SMOC1): Change from GRMD Baseline (fraction) [1]: -0.0553 fraction | Secreted and transmembrane protein 1 (SECTM1): Change from GRMD Baseline (fraction) [1]: -0.0267 fraction | Serine/threonine-protein kinase PAK 3 (PAK3): Change from GRMD Baseline (fraction) [1]: -0.1036 fraction | Serine/threonine-protein kinase PAK 7 (PAK7): Change from GRMD Baseline (fraction) [1]: -0.037 fraction | Serine/threonine-protein kinase pim-1 (PIM1): Change from GRMD Baseline (fraction) [1]: -0.0646 fraction | Serum amyloid A-1 protein (SAA1): Change from GRMD Baseline (fraction) [1]: -0.1842 fraction | Sialic acid-binding Ig-like lectin 7 (SIGLEC7): Change from GRMD Baseline (fraction) [1]: -0.0326 fraction | Small ubiquitin-related modifier 3 (SUMO3): Change from GRMD Baseline (fraction) [1]: -0.2515 fraction | Stromelysin-1 (MMP3): Change from GRMD Baseline (fraction) [1]: 0.0153 fraction | Stromelysin-2 (MMP10): Change from GRMD Baseline (fraction) [1]: -0.0419 fraction | Synaptosomal-associated protein 25 (SNAP25): Change from GRMD Baseline (fraction) [1]: 0.0795 fraction | T-cell surface glycoprotein CD4 (CD4): Change from GRMD Baseline (fraction) [1]: -0.0326 fraction | T-lymphocyte activation antigen CD86 (CD86): Change from GRMD Baseline (fraction) [1]: -0.0169 fraction | TATA-box-binding protein (TBP): Change from GRMD Baseline (fraction) [1]: -0.0838 fraction | Thyroxine-binding globulin (SERPINA7): Change from GRMD Baseline (fraction) [1]: 0.0123 fraction | Transcription factor IIIB 90 kDa subunit (BRF1): Change from GRMD Baseline (fraction) [1]: -0.0779 fraction | Tumor necrosis factor ligand superfamily member 18 (TNFSF18): Change from GRMD Baseline (fraction) [1]: -0.0886 fraction | Tumor necrosis factor receptor superfamily member 13B (TNFRSF13B): Change from GRMD Baseline (fraction) [1]: -0.1006 fraction | Tumor necrosis factor receptor superfamily member 13C (TNFRSF13C): Change from GRMD Baseline (fraction) [1]: 0.0816 fraction | Tumor-associated calcium signal transducer 2 (TACSTD2): Change from GRMD Baseline (fraction) [1]: -0.0508 fraction | Ubiquitin-conjugating enzyme E2 G2 (UBE2G2): Change from GRMD Baseline (fraction) [1]: 0.0044 fraction | WNT1-inducible-signaling pathway protein 1 (WISP1): Change from GRMD Baseline (fraction) [1]: -0.2187 fraction | WNT1-inducible-signaling pathway protein 3 (WISP3): Change from GRMD Baseline (fraction) [1]: -0.0425 fraction | alpha-2-macroglobulin receptor-associated protein (LRPAP1): Change from GRMD Baseline (fraction) [1]: -0.1071 fraction | cGMP-dependent 3',5'-cyclic phosphodiesterase (PDE2A): Change from GRMD Baseline (fraction) [1]: -0.1496 fraction | Change from GRMD Baseline (fraction) (Endothelial cell-specific molecule 1 (ESM1), EDG-5506 treatment to GRMD baseline): -0.0233 fraction | Change from GRMD Baseline (fraction) (Endothelial cell-specific molecule 1 (ESM1), Post-Treatment to GRMD baseline): -0.0289 fraction | Change from GRMD Baseline (fraction) (Ephrin-B3 (EFNB3), EDG-5506 treatment to GRMD baseline): 0.1026 fraction | Change from GRMD Baseline (fraction) (Ephrin-B3 (EFNB3), Post-Treatment to GRMD baseline): -0.0272 fraction | Change from GRMD Baseline (fraction) (Eukaryotic translation initiation factor 4E-binding protein 2 (EIF4EBP2), EDG-5506 treatment to GRMD baseline): 0.16 fraction | Change from GRMD Baseline (fraction) (Eukaryotic translation initiation factor 4E-binding protein 2 (EIF4EBP2), Post-Treatment to GRMD baseline): 0.0377 fraction | common DMD plasma proteomic signature (GRMD plasma, Somascan): significantly reversed this common DMD signature | Change from GRMD Baseline (fraction) (Glutathione S-transferase A3 (GSTA3), EDG-5506 treatment to GRMD baseline): 0.0601 fraction | Change from GRMD Baseline (fraction) (Glutathione S-transferase A3 (GSTA3), Post-Treatment to GRMD baseline): 1.476 fraction | Change from GRMD Baseline (fraction) (Heparan-sulfate 6-O-sulfotransferase 1 (HS6ST1), EDG-5506 treatment to GRMD baseline): 0.0701 fraction | Change from GRMD Baseline (fraction) (Heparan-sulfate 6-O-sulfotransferase 1 (HS6ST1), Post-Treatment to GRMD baseline): -0.1313 fraction | Change from GRMD Baseline (fraction) (Histone H3.1 (HIST1H3A), EDG-5506 treatment to GRMD baseline): 0.1658 fraction | Change from GRMD Baseline (fraction) (Histone H3.1 (HIST1H3A), Post-Treatment to GRMD baseline): 0.0723 fraction | Change from GRMD Baseline (fraction) (Human Chorionic Gonadotropin (CGA CGB), EDG-5506 treatment to GRMD baseline): 0.1653 fraction
